Laboratory results reported in patent US20100099631A1, “Novel Use” (priority 2006, published 2010).
Read-outs that look alike come from different tables or passages of the source.

What was measured:
muscle glucose oxidation = settings: co-ingestion of caffeine and glucose during exercise; cited from earlier work
[1] = Plasma glucose and insulin concentrations during 4 hr recovery after glycogen-depleting exercise; format: in vivo, human (trained cyclists)
Description: (§1) Eight trained cyclists participated in a study which was approved by the Ethics Committee of RMIT University, Melbourne, Australia. Each subject participated in two experimental trials separated by 7 to 10 days. Trials were randomised and double-blind. Approximately 12 to 14 hours before each trial, the subjects reported to the laboratory to undertake 90 minutes of intense cycling (repeated sprints) to deplete muscle glycogen stores. The subjects were then fed a standardised low carbohydrate meal (60% of energy from fat) and had to refrain from solid feeding for the following 12 to 14 hours. During this period water was allowed ad libitum.
(§2) The next morning, subjects reported to the laboratory between 0600 and 0700 hours. After a rest period of 10 minutes, an indwelling canula was inserted into the right forearm and a resting blood sample taken. Local anaesthesia was applied to the subjects skin to enable subcutaneous tissue and fascia of the vastus lateralis of the subjects right leg in preparation for muscle biopsies.
(§3) After biopsy preparation, a bout of exhaustive exercise (submaximal continuous cycling) was undertaken to further deplete muscle glycogen stores. The exhaustive cycling protocol has been previously described by McInerney et al. (McInerney P., Lessard S. J., Burke L. M., Coffey V. G., Lo Giudice S. L., Southgate R. J., Hawley J. A. Failure to repeatedly supercompensate muscle glycogen stores in highly trained men. Med. Sci. Sports Excer. 37:404-411, 2005). During exercise the subjects were allowed to drink water ad libitum and were fan-cooled.
(§4) Laboratory conditions were standardised for the tests with 50% relative humidity and a temperature of 20° C. Immediately on completion of the exercise and while subjects remained seated on the cycle ergometer, a muscle biopsy was taken and frozen within 15 seconds of the last muscle contraction. After the biopsy, subjects dismounted the ergometer and rested in a supine position. During one trial, subjects were fed 1 g/kg body mass (BM) of carbohydrate immediately upon cessation of exercise and thereafter 1 g/kg BM of carbohydrate after 60, 120 and 180 minutes of recovery (a total of 4 g/kg BM carbohydrate). In the second trial, subjects followed the same carbohydrate ingestion regimen but in addition consumed 4 mg/kg BM of caffeine immediately upon cessation of the exercise and then after 120 minutes during recovery. Blood samples were taken at regular intervals throughout the recovery period (0, 30, 60, 90, 120, 180 and 240 minutes). Muscle biopsies were taken immediately after exercise and after 1 and 4 hr of recovery. All muscle samples were stored at −80° C. until analysis.
(§5) Blood samples were analysed for plasma glucose and insulin concentrations at rest, and at regular intervals during recovery. The protocols for blood analysis are routine and have been described previously ((McInerney P., Lessard S. J., Burke L. M., Coffey V. G., Lo Giudice S. L., Southgate R. J., Hawley J. A. Failure to repeatedly supercompensate muscle glycogen stores in highly trained men. Med. Sci. Sports Excer. 37:404-411, 2005). Plasma caffeine levels were analysed by high-performance liquid chromatography. Muscle samples were analysed for glycogen content immediately after exercise and after 1 and 4 hours of recovery.

[2] = Plasma caffeine concentration by HPLC during recovery after exercise; format: in vivo, human (trained cyclists); settings: for concentration at 1 h / concentration at 4 h: 4 mg/kg BM
Description: as §1, §4, §5

muscle glycogen = experiment: Muscle glycogen content and resynthesis rate (vastus lateralis biopsies) after exhaustive exercise; format: in vivo, human (trained cyclists); settings: for Muscle Glycogen Resynthesis Rate: caffeine with carbohydrate
Description: as §1, §2, §3, §4, §5

[3] = 0 hr, immediately post exercise
[4] = 0.5 hr recovery, caffeine 4 mg/kg BM at 0 and 120 min with carbohydrate 1 g/kg BM hourly
[5] = 1 hr recovery, caffeine 4 mg/kg BM at 0 and 120 min with carbohydrate 1 g/kg BM hourly
[6] = 1.5 hr recovery, caffeine 4 mg/kg BM at 0 and 120 min with carbohydrate 1 g/kg BM hourly
[7] = 2 hr recovery, caffeine 4 mg/kg BM at 0 and 120 min with carbohydrate 1 g/kg BM hourly
[8] = 3 hr recovery, caffeine 4 mg/kg BM at 0 and 120 min with carbohydrate 1 g/kg BM hourly
[9] = 4 hr recovery, caffeine 4 mg/kg BM at 0 and 120 min with carbohydrate 1 g/kg BM hourly
[10] = rest, before exercise and ingestion

For Cn1c(=O)c2c(ncn2C)n(C)c1=O [Caffeine, caffeine], the “increase in muscle glucose oxidation” value (muscle glucose oxidation) is given as 26%, the “Plasma Glucose” value [1, 3] is given as 3.62 mmol/L and the “Plasma Insulin” value [1, 3] is given as 4.17 uU/mL. The “Plasma Glucose” value [1, 4] was 6.06 mmol/L, the “Plasma Insulin” value [1, 4] was 30.17 uU/mL and the “Plasma Glucose” value [1, 5] was 6.29 mmol/L. The “Plasma Insulin” value [1, 5] was 29.23 uU/mL, the “Plasma Glucose” value [1, 6] was 5.95 mmol/L and the “Plasma Insulin” value [1, 6] was 46.33 uU/mL. For the same compound, the “Plasma Glucose” value [1, 7] was 5.58 mmol/L, the “Plasma Insulin” value [1, 7] was 46.02 uU/mL and the “Plasma Glucose” value [1, 8] was 5.24 mmol/L. The “Plasma Insulin” value [1, 8] was 68.53 uU/mL, the “Plasma Glucose” value [1, 9] was 5.23 mmol/L and the “Plasma Insulin” value [1, 9] was 46.91 uU/mL. The “area under the insulin versus time curve compared to carbohydrate alone” value ([1]; caffeine with carbohydrate, 4 hr recovery, P<0.05) was “significantly greater”, the “Plasma Glucose” value [1, 10] was 4.04 mmol/L and the “Plasma Insulin” value [1, 10] was 9.36 uU/mL. It also gave a concentration at 0 h ([2]; human, plasma, oral, 0 hr, immediately post exercise) of 0 nM, a concentration at 1 h ([2]; human, plasma, oral, 1 hr recovery, oral caffeine 4 mg/kg BM at 0 and 120 min with carbohydrate, read-out: Plasma caffeine concentration) of 31.5 µM and a concentration at 4 h ([2]; human, plasma, oral, 4 hr recovery, oral caffeine 4 mg/kg BM at 0 and 120 min with carbohydrate, read-out: Plasma caffeine concentration) of 77.9 µM. For the same compound, the concentration at 1 h ([2]; human, plasma, oral, after 1 hr, carbohydrate and caffeine, read-out: plasma caffeine levels) was 30 µM, the concentration at 4 h ([2]; human, plasma, oral, after 4 hr, carbohydrate and caffeine, read-out: plasma caffeine levels) was ~80 µM and the Plasma caffeine concentration [2, 10] was 0.00 µM. For the same compound, the “Muscle Glycogen Resynthesis Rate” value (muscle glycogen; 0-1 hr of recovery) was 63.52 mm/Kg · hr · dm, the “Muscle Glycogen Content” value (muscle glycogen; [3]) was 76 mmol/Kg · dm and the “Muscle Glycogen Content” value (muscle glycogen; [5]) was 149 mmol/Kg · dm. The “Muscle Glycogen Resynthesis Rate” value (muscle glycogen; 1 hr-4 hr of recovery) was 57.69 mm/Kg · hr · dm, the “Muscle Glycogen Content” value (muscle glycogen; [9]) was 313 mmol/Kg · dm and the Muscle Glycogen Content (muscle glycogen; after 1 hr of recovery) was 149±18 mmol/kg d.w. For the same compound, the “increase of muscle glycogen content” value (muscle glycogen; after 1 hr of recovery, vs exhaustion) was ~80%, the muscle glycogen levels (muscle glycogen; after 4 hr of recovery, co-ingestion of caffeine with CHO, P<0.001 vs placebo) was 313±26 mmol/kg d.w and the “muscle glycogen levels at exhaustion” value (muscle glycogen; at exhaustion, before ingestion) was 76 ± 9 mmol/kg. For the same compound, the “rates of muscle glycogen synthesis, higher than PL (carbohydrate alone)” value (muscle glycogen; from 1-4 hr of recovery) was 66%, the “rates of muscle glycogen synthesis” value (muscle glycogen; from 1-4 hr of recovery, P<0.05 vs PL) was 57.7 ± 7.6 mmol/kg/h and the “average rate of resynthesis, higher than PL (carbohydrate alone)” value (muscle glycogen; over the 4 hours of recovery) was 66%. The “average rate of resynthesis” value (muscle glycogen; over the 4 hours of recovery, P<0.05 vs PL) was 57.71 ± 7.6 mmol/kg/h.
